Source: patent US20050165029A1, “Pyrrolopyrimidine derivatives and analogs and their use in the treatment and prevention of diseases” (Ambit Biosciences Corporation, priority 2004, published 2005)

Legend:
[1] = molecular target: T1, PLK 4 (Homo sapiens, UniProt O00444); assay: PLK 4 (SKIN) Binding Assay
T1 construct: made in house; host or cells: T7 bacteriophage display
T1 sequence (O00444 1-970): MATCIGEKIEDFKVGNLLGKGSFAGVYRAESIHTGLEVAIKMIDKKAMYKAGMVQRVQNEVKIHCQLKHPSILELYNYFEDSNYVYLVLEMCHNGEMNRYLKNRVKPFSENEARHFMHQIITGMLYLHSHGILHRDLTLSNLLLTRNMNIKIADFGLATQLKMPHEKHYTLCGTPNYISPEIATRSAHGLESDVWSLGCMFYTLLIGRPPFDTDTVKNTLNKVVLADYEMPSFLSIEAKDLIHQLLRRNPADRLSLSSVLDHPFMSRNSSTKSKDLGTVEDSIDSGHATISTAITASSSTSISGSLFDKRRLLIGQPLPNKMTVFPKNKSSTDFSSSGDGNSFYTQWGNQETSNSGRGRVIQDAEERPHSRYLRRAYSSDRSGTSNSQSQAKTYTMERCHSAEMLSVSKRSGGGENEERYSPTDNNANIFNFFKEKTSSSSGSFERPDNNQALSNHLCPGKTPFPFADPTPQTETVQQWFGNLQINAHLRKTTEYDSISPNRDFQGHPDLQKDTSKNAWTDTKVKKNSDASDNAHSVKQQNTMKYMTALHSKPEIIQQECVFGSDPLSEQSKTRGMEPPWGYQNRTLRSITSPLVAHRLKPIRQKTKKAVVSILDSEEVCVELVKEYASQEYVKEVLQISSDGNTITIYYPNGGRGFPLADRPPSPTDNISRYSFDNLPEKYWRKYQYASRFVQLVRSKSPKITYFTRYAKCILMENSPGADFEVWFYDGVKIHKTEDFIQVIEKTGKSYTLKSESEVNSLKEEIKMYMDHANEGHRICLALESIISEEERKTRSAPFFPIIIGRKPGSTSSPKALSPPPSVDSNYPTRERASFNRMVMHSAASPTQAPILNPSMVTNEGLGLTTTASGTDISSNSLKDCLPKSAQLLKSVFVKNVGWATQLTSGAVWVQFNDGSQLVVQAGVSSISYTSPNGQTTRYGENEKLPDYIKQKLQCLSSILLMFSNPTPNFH
Description: (§1) Methods for measuring binding affinities for interactions between small molecules and kinases including FLT3, c-KIT, ABL(T334I) [a.k.a. ABL(T315I)], VEGFR-2 (a.k.a. KDR), and EGFR are described in detail in U.S. application Ser. No. 10/873,835, which is incorporated by reference herein in its entirety. The components of the assays include human kinases expressed as fusions to T7 bacteriophage particles and immobilized ligands that bind to the ATP site of the kinases. […] If the test compound binds the kinase it competes with the immobilized ligand and prevents binding to the solid support. […] The results are read out by quantitating the amount of fusion protein bound to the solid support, which is accomplished by either traditional phage plaque assays or by quantitative PCR (qPCR) using the phage genome as a template. […] The concentration of test molecule that reduces the number of phage bound to the solid support by 50% is equal to the Kd for the interaction between the kinase and the test molecule. Typically, data are collected for twelve concentrations of test compound and, the resultant binding curve is fit to a non-cooperative binding isotherm to calculate Kd.
(§2) Described in the exemplary assays below is data from binding with varying kinases. […] The term “ND” represents non-determined values.

[2] = molecular target: T2, TNIK (Homo sapiens, UniProt Q9UKE5); assay: TNIK (DKIN) Binding Assay
T2 construct: made in house; host or cells: T7 bacteriophage display
T2 sequence (Q9UKE5 whole entry): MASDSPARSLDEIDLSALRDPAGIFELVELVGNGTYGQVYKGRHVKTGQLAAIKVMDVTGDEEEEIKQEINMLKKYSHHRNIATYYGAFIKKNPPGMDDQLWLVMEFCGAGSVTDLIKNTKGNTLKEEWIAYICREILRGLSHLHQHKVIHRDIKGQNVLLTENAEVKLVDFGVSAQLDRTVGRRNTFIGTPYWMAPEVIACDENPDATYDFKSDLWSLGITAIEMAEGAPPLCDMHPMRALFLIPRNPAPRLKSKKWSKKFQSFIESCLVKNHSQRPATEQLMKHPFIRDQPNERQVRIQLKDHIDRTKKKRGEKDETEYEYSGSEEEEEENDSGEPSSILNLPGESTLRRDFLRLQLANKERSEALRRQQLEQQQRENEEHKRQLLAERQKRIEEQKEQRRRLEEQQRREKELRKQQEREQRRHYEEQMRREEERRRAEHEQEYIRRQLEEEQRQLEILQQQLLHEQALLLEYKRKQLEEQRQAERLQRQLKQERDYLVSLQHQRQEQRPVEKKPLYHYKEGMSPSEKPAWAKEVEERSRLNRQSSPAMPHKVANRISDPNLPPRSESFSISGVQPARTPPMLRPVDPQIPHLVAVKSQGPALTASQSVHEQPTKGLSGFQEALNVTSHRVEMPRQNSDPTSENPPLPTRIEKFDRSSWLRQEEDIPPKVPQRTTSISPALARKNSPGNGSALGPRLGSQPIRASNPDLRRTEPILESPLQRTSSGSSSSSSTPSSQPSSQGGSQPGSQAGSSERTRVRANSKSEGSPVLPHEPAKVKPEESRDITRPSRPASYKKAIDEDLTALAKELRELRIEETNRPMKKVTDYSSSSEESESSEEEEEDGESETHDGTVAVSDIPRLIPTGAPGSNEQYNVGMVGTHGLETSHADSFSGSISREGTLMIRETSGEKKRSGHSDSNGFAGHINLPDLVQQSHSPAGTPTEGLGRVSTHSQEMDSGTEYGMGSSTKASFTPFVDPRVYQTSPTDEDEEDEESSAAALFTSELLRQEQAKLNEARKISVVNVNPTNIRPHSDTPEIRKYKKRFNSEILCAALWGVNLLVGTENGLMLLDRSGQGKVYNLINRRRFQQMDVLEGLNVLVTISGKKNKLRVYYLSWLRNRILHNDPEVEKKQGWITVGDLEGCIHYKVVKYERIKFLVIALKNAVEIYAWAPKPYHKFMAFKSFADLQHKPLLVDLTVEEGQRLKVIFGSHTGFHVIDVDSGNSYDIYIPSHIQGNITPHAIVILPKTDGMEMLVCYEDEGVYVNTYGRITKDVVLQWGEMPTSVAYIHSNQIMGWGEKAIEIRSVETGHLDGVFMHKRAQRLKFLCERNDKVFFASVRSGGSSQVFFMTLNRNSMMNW
Description: as §1, §2

[3] = molecular target: T3, MARK2 (Homo sapiens, UniProt Q7KZI7); assay: MARK2 (SKIN) Binding Assay
T3 construct: made in house; host or cells: T7 bacteriophage display
T3 sequence (Q7KZI7 whole entry): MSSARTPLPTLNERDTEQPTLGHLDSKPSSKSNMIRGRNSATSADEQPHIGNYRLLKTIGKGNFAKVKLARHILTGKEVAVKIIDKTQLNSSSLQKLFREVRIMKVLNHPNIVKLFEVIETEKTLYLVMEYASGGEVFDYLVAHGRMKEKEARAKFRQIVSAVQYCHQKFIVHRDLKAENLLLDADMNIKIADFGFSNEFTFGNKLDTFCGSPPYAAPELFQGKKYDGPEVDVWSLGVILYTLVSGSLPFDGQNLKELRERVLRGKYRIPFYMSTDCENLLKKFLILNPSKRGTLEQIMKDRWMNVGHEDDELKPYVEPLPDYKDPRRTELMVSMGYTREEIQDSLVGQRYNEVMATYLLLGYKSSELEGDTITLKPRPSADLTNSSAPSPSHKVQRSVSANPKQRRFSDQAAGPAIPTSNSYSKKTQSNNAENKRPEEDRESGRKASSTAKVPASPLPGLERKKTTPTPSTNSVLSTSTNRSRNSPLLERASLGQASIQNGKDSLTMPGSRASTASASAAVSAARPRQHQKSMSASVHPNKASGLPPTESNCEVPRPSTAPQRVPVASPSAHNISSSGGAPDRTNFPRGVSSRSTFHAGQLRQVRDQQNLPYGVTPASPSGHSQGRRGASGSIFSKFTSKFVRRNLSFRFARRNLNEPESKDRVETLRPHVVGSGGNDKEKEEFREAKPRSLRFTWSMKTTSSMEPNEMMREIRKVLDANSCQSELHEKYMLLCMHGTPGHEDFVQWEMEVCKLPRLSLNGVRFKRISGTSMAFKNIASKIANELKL
Description: as §1, §2

[4] = molecular target: T4, ABL2 (Homo sapiens, UniProt P42684); assay: ABL2 (DKIN) binding assay
T4 construct: made in house; host or cells: T7 bacteriophage display
T4 sequence (P42684 whole entry): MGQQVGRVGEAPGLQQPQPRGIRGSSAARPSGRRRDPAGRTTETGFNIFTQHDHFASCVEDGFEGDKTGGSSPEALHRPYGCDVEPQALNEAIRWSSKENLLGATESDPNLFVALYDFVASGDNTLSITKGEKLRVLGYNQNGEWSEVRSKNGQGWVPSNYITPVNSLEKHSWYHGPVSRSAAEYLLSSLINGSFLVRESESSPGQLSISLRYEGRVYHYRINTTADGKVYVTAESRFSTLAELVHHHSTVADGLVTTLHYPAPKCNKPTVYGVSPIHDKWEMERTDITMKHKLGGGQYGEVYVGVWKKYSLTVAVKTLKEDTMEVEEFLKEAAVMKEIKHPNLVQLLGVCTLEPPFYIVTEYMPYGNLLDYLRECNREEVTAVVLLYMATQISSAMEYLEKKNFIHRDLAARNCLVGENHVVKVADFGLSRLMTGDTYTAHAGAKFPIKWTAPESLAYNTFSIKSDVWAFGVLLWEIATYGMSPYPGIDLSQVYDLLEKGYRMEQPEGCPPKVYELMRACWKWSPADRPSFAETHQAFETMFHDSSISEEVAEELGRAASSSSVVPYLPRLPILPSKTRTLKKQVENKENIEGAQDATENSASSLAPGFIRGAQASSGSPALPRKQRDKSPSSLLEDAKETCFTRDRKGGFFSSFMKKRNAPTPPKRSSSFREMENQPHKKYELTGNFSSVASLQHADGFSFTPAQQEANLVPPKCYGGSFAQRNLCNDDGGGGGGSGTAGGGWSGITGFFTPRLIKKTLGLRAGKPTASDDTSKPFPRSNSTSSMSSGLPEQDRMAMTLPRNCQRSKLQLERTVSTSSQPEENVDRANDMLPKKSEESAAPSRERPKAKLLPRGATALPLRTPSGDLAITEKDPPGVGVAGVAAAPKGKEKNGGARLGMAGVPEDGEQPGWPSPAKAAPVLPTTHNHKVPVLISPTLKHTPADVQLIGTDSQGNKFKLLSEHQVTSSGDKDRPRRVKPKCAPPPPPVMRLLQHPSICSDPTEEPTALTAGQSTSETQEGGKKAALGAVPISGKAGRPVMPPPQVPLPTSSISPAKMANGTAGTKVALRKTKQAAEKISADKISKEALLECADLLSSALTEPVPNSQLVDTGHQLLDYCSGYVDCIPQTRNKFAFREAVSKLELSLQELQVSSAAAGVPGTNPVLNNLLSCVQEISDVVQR
Description: as §1, §2

- Kd [1]: > 10 µM
- Kd [2]: < 0.1 µM
- Kd [3]: > 10 µM
- Kd [4]: 1 to 10 µM
Structure (SMILES): Oc1ccc(-c2cc3c(Sc4cccc(Cl)c4)ncnc3[nH]2)cc1 [Compound L2]
